Values of other authors as cited in patent US20030013726A1 (priority 2000, published 2003).

Test system: patients with disorders of initiating sleep

CCN(C(C)=O)c1cccc(-c2ccnc3c(C#N)cnn23)c1 [zaleplon]
sleep stages 3 and 4 (delta sleep and deep sleep) (clinical studies): not impaired | effectiveness for patients with disorders of initiating sleep (clinical study on more than 3 700 patients in the USA, Canada and Europe, including elderly people 65-85 years): very effective | sleep latency estimated both by polysomnography and subjectively (compared with placebo, clinical studies): significantly reduced
